Results: US9359338B2, “Cyclopropanecarboxamido-substitute aromatic compounds as anti-tumor agents” (Crown Bioscience Inc. (Taiwan), priority 2012, dated 2016)
pIC50: −log10 of the molar value.

Biological target: B-Raf kinase (Homo sapiens (Human), UniProt P15056)
Test: Inhibitory activity at B-Raf kinase (ADP-GLO assay)
Format: biochemical
Settings: not given
Experimental: Inhibitory Activity of Compounds at B-Raf Kinase
• [Experimental method]: Use ADP-GLO™ assay kit from Promega to evaluate the inhibitory activity of compounds at B-Raf • [Instrument]: PerKinElmer's ENVISION plate reader • [Material]: Optiplate-384 well plate (PerKinElmer), kinase buffer (50 mM Hepes pH7.5, 1 mM EGTA, 2 mM DTT, 10 mM Mg^2+, 0.05% BSA), B-Raf kinase (Millipore, catalogue #14-530-K), GST-MEK1 substrate (Carna, catalogue #07-141-10), Super pure ATP (Promega), ADP-GLO™ assay kit (Promega, catalogue # V9102), DMSO (Sigma, catalogue #34869), purified water (Millipore, type: Milli-Q). • [Study conditions]: Mix B-Raf kinase (final concentration: 5 nM) and compound (DMSO final concentration: 0.25%) and preincubate at 30° C. for 20 min, then add ATP (final concentration: 6 μM) and reaction substrate (final concentration: 30 nM), React for 2 hrs at 30° C. After reaction, add ADP-GLO™ reagent, react for 40 min at room temperature, then add ADP-GLO™ detecting agent, react for 30 min at room temperature. After that, use ENVSION to measure the […]. • [Samples]: Compounds in the examples and Sorafenib (positive control) • [Data analysis]: Use CBIS data analysis software to calculate IC50 values

Chain of B-Raf kinase (P15056 416-766): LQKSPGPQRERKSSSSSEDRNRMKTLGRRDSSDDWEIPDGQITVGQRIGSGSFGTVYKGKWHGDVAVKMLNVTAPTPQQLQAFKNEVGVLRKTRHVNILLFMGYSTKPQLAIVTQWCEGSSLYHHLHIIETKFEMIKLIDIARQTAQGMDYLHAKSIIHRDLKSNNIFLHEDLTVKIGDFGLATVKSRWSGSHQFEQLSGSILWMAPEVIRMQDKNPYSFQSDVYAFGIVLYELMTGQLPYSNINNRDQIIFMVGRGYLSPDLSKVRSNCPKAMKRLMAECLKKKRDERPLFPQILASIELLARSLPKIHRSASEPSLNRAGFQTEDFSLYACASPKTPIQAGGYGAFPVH

Row | SMILES | pIC50
1 | N#Cc1ccc(NC(=O)Nc2ccc(Oc3ccnc(NC(=O)C4CC4)c3)cc2)cc1C(F)(F)F [Exe. 139] | 7.89
2 | O=C(Nc1ccc(Oc2ccnc(NC(=O)C3CC3)c2)cc1)Nc1cc(F)cc(C(F)(F)F)c1 [Exe. 141] | 6.90
3 | O=C(Nc1ccc(Oc2ccnc(NC(=O)C3CC3)c2)cc1)Nc1cc(C(F)(F)F)ccc1Cl [Exe. 142] | 7.41
4 | O=C(Nc1ccc(Oc2ccnc(NC(=O)C3CC3)c2)cc1)Nc1cccc(C(F)(F)F)c1 [Exe. 144] | 7.52
5 | CC(F)(F)c1cc(NC(=O)Nc2ccc(Oc3ccnc(NC(=O)C4CC4)c3)cc2)ccc1Cl [Exe. 149] | 7.42
6 | N#Cc1cc(NC(=O)Nc2ccc(Oc3ccnc(NC(=O)C4CC4)c3)cc2)cc(C(F)(F)F)c1 [Exe. 152] | 7.14
7 | O=C(Nc1ccc(Oc2ccnc(NC(=O)C3CC3)c2)c(F)c1)Nc1ccc(F)c(C(F)(F)F)c1 [Exe. 153] | 7.49
8 | O=C(Nc1ccc(Oc2ccnc(NC(=O)C3CC3)c2)c(F)c1)Nc1cc(C(F)(F)F)ccc1F [Exe. 156] | 7.43

Continued by rising pIC50, values first:

Row | pIC50 | SMILES
9 | 7.54 | CS(=O)(=O)c1cc(NC(=O)Nc2ccc(Oc3ccnc(NC(=O)C4CC4)c3)cn2)cc(C(F)(F)F)c1 [Exe. 136]
10 | 7.59 | O=C(Nc1ccc(Oc2ccnc(NC(=O)C3CC3)c2)cc1)Nc1ccc(F)c(C(F)(F)F)c1 [Exe. 138]
11 | 7.80 | CC(F)(F)c1ccc(F)c(NC(=O)Nc2ccc(Oc3ccnc(NC(=O)C4CC4)c3)cc2)c1 [Exe. 148]
12 | 7.82 | CC(F)(F)c1ccnc(NC(=O)Nc2ccc(Oc3ccnc(NC(=O)C4CC4)c3)cc2)c1 [Exe. 147]
13 | 7.85 | O=C(Nc1ccc(Oc2ccnc(NC(=O)C3CC3)c2)cc1)Nc1cccc(OC(F)(F)F)c1 [Exe. 146]
14 | 7.95 | O=C(Nc1ccc(Oc2ccnc(NC(=O)C3CC3)c2)cc1)Nc1ccc(Cl)c(C(F)(F)F)c1 [Exe. 137]
15 | 8.26 | CN1CCC(c2cc(NC(=O)Nc3ccc(Oc4ccnc(NC(=O)C5CC5)c4)cc3)cc(C(F)(F)F)c2)CC1 [Exe. 143]
16 | 8.29 | CS(=O)(=O)c1cc(NC(=O)Nc2ccc(Oc3ccnc(NC(=O)C4CC4)c3)cc2)cc(C(F)(F)F)c1 [Exe. 145]
17 | 8.48 | O=C(Nc1ccc(Oc2ccnc(NC(=O)C3CC3)c2)cc1)Nc1ccc2c(c1)C(F)(F)CCO2 [Exe. 151]

System: PLC-PRF-5 cells
Test: Inhibition of proliferation of PLC-PRF-5 cells (ATPlite)
Format: cell-based
Settings: Homo sapiens, PLC-PRF-5, PLC-PRF-5 cells; read-out: PLC-PRF-5 cell proliferation IC50
Method in brief: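 Antiproliferative IC50 from luminescent ATP detection (ATPlite) after 96 h compound exposure at 37 °C. Cells grown in DMEM plus 10% FBS and allowed 2 h to settle, then dosed with eight 3-fold dilutions topping at 30 μM final, DMSO 0.3%.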

Row | SMILES | pIC50
18 | CS(=O)(=O)c1cc(NC(=O)Nc2ccc(Oc3ccnc(NC(=O)C4CC4)c3)cn2)cc(C(F)(F)F)c1 [Exe. 136] | 6.33
19 | O=C(Nc1ccc(Oc2ccnc(NC(=O)C3CC3)c2)cc1)Nc1ccc(Cl)c(C(F)(F)F)c1 [Exe. 137] | 5.22
20 | O=C(Nc1ccc(Oc2ccnc(NC(=O)C3CC3)c2)cc1)Nc1ccc(F)c(C(F)(F)F)c1 [Exe. 138] | 5.82
21 | O=C(Nc1ccc(Oc2ccnc(NC(=O)C3CC3)c2)cc1)Nc1cc(F)cc(C(F)(F)F)c1 [Exe. 141] | 6.19
22 | O=C(Nc1ccc(Oc2ccnc(NC(=O)C3CC3)c2)cc1)Nc1cc(C(F)(F)F)ccc1Cl [Exe. 142] | 6.19
23 | CN1CCC(c2cc(NC(=O)Nc3ccc(Oc4ccnc(NC(=O)C5CC5)c4)cc3)cc(C(F)(F)F)c2)CC1 [Exe. 143] | 6.05
24 | O=C(Nc1ccc(Oc2ccnc(NC(=O)C3CC3)c2)cc1)Nc1cccc(C(F)(F)F)c1 [Exe. 144] | 6.39
25 | CS(=O)(=O)c1cc(NC(=O)Nc2ccc(Oc3ccnc(NC(=O)C4CC4)c3)cc2)cc(C(F)(F)F)c1 [Exe. 145] | 5.78
26 | O=C(Nc1ccc(Oc2ccnc(NC(=O)C3CC3)c2)cc1)Nc1cccc(OC(F)(F)F)c1 [Exe. 146] | 6.16
27 | CC(F)(F)c1ccnc(NC(=O)Nc2ccc(Oc3ccnc(NC(=O)C4CC4)c3)cc2)c1 [Exe. 147] | 5.94
28 | CC(F)(F)c1ccc(F)c(NC(=O)Nc2ccc(Oc3ccnc(NC(=O)C4CC4)c3)cc2)c1 [Exe. 148] | 6.62
29 | CC(F)(F)c1cc(NC(=O)Nc2ccc(Oc3ccnc(NC(=O)C4CC4)c3)cc2)ccc1Cl [Exe. 149] | 6.10
30 | O=C(Nc1ccc(Oc2ccnc(NC(=O)C3CC3)c2)cc1)Nc1ccc2c(c1)C(F)(F)CCO2 [Exe. 151] | 6.22
31 | N#Cc1cc(NC(=O)Nc2ccc(Oc3ccnc(NC(=O)C4CC4)c3)cc2)cc(C(F)(F)F)c1 [Exe. 152] | 6.41
32 | O=C(Nc1ccc(Oc2ccnc(NC(=O)C3CC3)c2)c(F)c1)Nc1ccc(F)c(C(F)(F)F)c1 [Exe. 153] | 6.13
33 | O=C(Nc1ccc(Oc2ccnc(NC(=O)C3CC3)c2)c(F)c1)Nc1cc(C(F)(F)F)ccc1F [Exe. 156] | 7.28

Same assay, conditions: Homo sapiens, PLC-PRF-5, read-out: PLC-PRF-5 cell proliferation IC50

Row | SMILES | pIC50
34 | N#Cc1ccc(NC(=O)Nc2ccc(Oc3ccnc(NC(=O)C4CC4)c3)cc2)cc1C(F)(F)F [Exe. 139] | 6.18

System: pERK in MDA-MB-231 cells
Test: Inhibitory activity at pERK (In Cell Western, MDA-MB-231 cells)
Format: cell-based
Settings: Homo sapiens, MDA-MB-231, MDA-MB-231 cells; read-out: MDA-MB-231 pERK IC50
Method in brief: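 pERK was measured by in-cell immunofluorescence (PI nuclear counterstain, Acumen read-out) in fixed MDA-MB-231 cells. Compound exposure lasted 2 h in DMEM with 0.1% BSA, using eight 3-fold dilutions starting at 30 μM final and 0.3% DMSO. IC50 values were derived from the resulting curves.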

Row | SMILES | pIC50
35 | O=C(Nc1ccc(Oc2ccnc(NC(=O)C3CC3)c2)cc1)Nc1cc(F)cc(C(F)(F)F)c1 [Exe. 141] | 7.39
36 | O=C(Nc1ccc(Oc2ccnc(NC(=O)C3CC3)c2)cc1)Nc1cc(C(F)(F)F)ccc1Cl [Exe. 142] | 7.86
37 | O=C(Nc1ccc(Oc2ccnc(NC(=O)C3CC3)c2)cc1)Nc1cccc(C(F)(F)F)c1 [Exe. 144] | 8.22
38 | CC(F)(F)c1cc(NC(=O)Nc2ccc(Oc3ccnc(NC(=O)C4CC4)c3)cc2)ccc1Cl [Exe. 149] | 7.60
39 | N#Cc1cc(NC(=O)Nc2ccc(Oc3ccnc(NC(=O)C4CC4)c3)cc2)cc(C(F)(F)F)c1 [Exe. 152] | 7.48
40 | O=C(Nc1ccc(Oc2ccnc(NC(=O)C3CC3)c2)c(F)c1)Nc1ccc(F)c(C(F)(F)F)c1 [Exe. 153] | 7.64
41 | O=C(Nc1ccc(Oc2ccnc(NC(=O)C3CC3)c2)c(F)c1)Nc1cc(C(F)(F)F)ccc1F [Exe. 156] | 7.42

Other lines, results leading:

Row | pIC50 | SMILES
42 | 7.34 | CS(=O)(=O)c1cc(NC(=O)Nc2ccc(Oc3ccnc(NC(=O)C4CC4)c3)cn2)cc(C(F)(F)F)c1 [Exe. 136]
43 | 8.04 | O=C(Nc1ccc(Oc2ccnc(NC(=O)C3CC3)c2)cc1)Nc1ccc(F)c(C(F)(F)F)c1 [Exe. 138]
44 | 8.11 | CC(F)(F)c1ccc(F)c(NC(=O)Nc2ccc(Oc3ccnc(NC(=O)C4CC4)c3)cc2)c1 [Exe. 148]
45 | 7.62 | CC(F)(F)c1ccnc(NC(=O)Nc2ccc(Oc3ccnc(NC(=O)C4CC4)c3)cc2)c1 [Exe. 147]
46 | 7.94 | O=C(Nc1ccc(Oc2ccnc(NC(=O)C3CC3)c2)cc1)Nc1cccc(OC(F)(F)F)c1 [Exe. 146]
47 | 8.11 | O=C(Nc1ccc(Oc2ccnc(NC(=O)C3CC3)c2)cc1)Nc1ccc(Cl)c(C(F)(F)F)c1 [Exe. 137]
48 | 7.87 | CN1CCC(c2cc(NC(=O)Nc3ccc(Oc4ccnc(NC(=O)C5CC5)c4)cc3)cc(C(F)(F)F)c2)CC1 [Exe. 143]
49 | 7.68 | CS(=O)(=O)c1cc(NC(=O)Nc2ccc(Oc3ccnc(NC(=O)C4CC4)c3)cc2)cc(C(F)(F)F)c1 [Exe. 145]
50 | 8.44 | O=C(Nc1ccc(Oc2ccnc(NC(=O)C3CC3)c2)cc1)Nc1ccc2c(c1)C(F)(F)CCO2 [Exe. 151]

Same assay, conditions: Homo sapiens, MDA-MB-231, read-out: MDA-MB-231 pERK IC50

Row | SMILES | pIC50
51 | N#Cc1ccc(NC(=O)Nc2ccc(Oc3ccnc(NC(=O)C4CC4)c3)cc2)cc1C(F)(F)F [Exe. 139] | 7.96

Biological target: KDR kinase (790-1356 AA) (Homo sapiens (Human), UniProt P35968)
Sequence (P35968 790-1356): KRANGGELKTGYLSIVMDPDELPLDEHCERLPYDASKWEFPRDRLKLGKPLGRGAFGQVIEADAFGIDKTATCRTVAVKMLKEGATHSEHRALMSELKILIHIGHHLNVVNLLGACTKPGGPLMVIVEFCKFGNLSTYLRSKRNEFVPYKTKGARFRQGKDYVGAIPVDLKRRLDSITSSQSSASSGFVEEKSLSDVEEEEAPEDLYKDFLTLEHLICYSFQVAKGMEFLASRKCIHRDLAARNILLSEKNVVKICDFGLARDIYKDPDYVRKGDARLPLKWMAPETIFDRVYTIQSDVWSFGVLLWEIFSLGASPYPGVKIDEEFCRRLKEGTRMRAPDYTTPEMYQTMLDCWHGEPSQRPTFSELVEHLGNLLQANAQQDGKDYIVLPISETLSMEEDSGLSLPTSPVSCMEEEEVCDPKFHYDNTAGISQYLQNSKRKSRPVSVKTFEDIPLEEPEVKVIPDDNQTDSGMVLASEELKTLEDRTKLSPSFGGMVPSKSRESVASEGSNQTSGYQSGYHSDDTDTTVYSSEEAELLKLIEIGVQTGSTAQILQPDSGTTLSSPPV
Test: Inhibitory activity at KDR kinase (Lance Ultra Ulight-TK assay)
Format: biochemical
Settings: not given
Method in brief: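 Kinase (20 nM final) and compound were premixed 20 min at 30 °C, then phosphorylation ran 2 h at 30 °C with ATP at 90 μM and Ulight-TK substrate at 50 μM, pH 7.5, Mg2+ and Mn2+ present.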

Row | SMILES | pIC50
52 | N#Cc1ccc(NC(=O)Nc2ccc(Oc3ccnc(NC(=O)C4CC4)c3)cc2)cc1C(F)(F)F [Exe. 139] | 8.00
53 | O=C(Nc1ccc(Oc2ccnc(NC(=O)C3CC3)c2)cc1)Nc1cc(F)cc(C(F)(F)F)c1 [Exe. 141] | 8.15
54 | O=C(Nc1ccc(Oc2ccnc(NC(=O)C3CC3)c2)cc1)Nc1cc(C(F)(F)F)ccc1Cl [Exe. 142] | 7.98
55 | O=C(Nc1ccc(Oc2ccnc(NC(=O)C3CC3)c2)cc1)Nc1cccc(C(F)(F)F)c1 [Exe. 144] | 7.94
56 | CC(F)(F)c1cc(NC(=O)Nc2ccc(Oc3ccnc(NC(=O)C4CC4)c3)cc2)ccc1Cl [Exe. 149] | 7.60
57 | N#Cc1cc(NC(=O)Nc2ccc(Oc3ccnc(NC(=O)C4CC4)c3)cc2)cc(C(F)(F)F)c1 [Exe. 152] | 8.15
58 | O=C(Nc1ccc(Oc2ccnc(NC(=O)C3CC3)c2)c(F)c1)Nc1ccc(F)c(C(F)(F)F)c1 [Exe. 153] | 7.82
59 | O=C(Nc1ccc(Oc2ccnc(NC(=O)C3CC3)c2)c(F)c1)Nc1cc(C(F)(F)F)ccc1F [Exe. 156] | 8.08

Further lines, results first:

Row | pIC50 | SMILES
60 | 8.18 | CS(=O)(=O)c1cc(NC(=O)Nc2ccc(Oc3ccnc(NC(=O)C4CC4)c3)cn2)cc(C(F)(F)F)c1 [Exe. 136]
61 | 7.98 | O=C(Nc1ccc(Oc2ccnc(NC(=O)C3CC3)c2)cc1)Nc1ccc(F)c(C(F)(F)F)c1 [Exe. 138]
62 | 8.21 | CC(F)(F)c1ccc(F)c(NC(=O)Nc2ccc(Oc3ccnc(NC(=O)C4CC4)c3)cc2)c1 [Exe. 148]
63 | 7.95 | CC(F)(F)c1ccnc(NC(=O)Nc2ccc(Oc3ccnc(NC(=O)C4CC4)c3)cc2)c1 [Exe. 147]
64 | 8.11 | O=C(Nc1ccc(Oc2ccnc(NC(=O)C3CC3)c2)cc1)Nc1cccc(OC(F)(F)F)c1 [Exe. 146]
65 | 7.99 | O=C(Nc1ccc(Oc2ccnc(NC(=O)C3CC3)c2)cc1)Nc1ccc(Cl)c(C(F)(F)F)c1 [Exe. 137]
66 | 8.02 | CN1CCC(c2cc(NC(=O)Nc3ccc(Oc4ccnc(NC(=O)C5CC5)c4)cc3)cc(C(F)(F)F)c2)CC1 [Exe. 143]
67 | 8.12 | CS(=O)(=O)c1cc(NC(=O)Nc2ccc(Oc3ccnc(NC(=O)C4CC4)c3)cc2)cc(C(F)(F)F)c1 [Exe. 145]
68 | 8.35 | O=C(Nc1ccc(Oc2ccnc(NC(=O)C3CC3)c2)cc1)Nc1ccc2c(c1)C(F)(F)CCO2 [Exe. 151]
